From patent publication US7585874B2, “Aryl-isoxazol-4-yl-imidazo[1,2-a]pyridine derivatives” (Hoffmann-La Roche Inc., priority 2006, dated 2009)

biological target: T1, GABA A receptor α5β3γ2 (Homo sapiens, UniProt P18507+P31644); assay: [3H]flumazenil competition binding, membranes of HEK293 cells expressing human GABA A α5β3γ2; details: human α5β3γ2 in HEK293 (transiently transfected); 0.5 nM [3H]flumazenil; 1 hour at 4° C.; means of two determinations; read-out: Ki[nM]hα5
T1 construct: expressed in transfected cells; host or cells: HEK293 (transiently transfected; membranes)
Procedure: The affinity of compounds at GABA A receptor subtypes was measured by competition for [3H]flumazenil (85 Ci/mmol; Roche) binding to HEK293 cells expressing rat (stably transfected) or human (transiently transfected) receptors of composition α1β3γ2, α2β3γ2, α3β3γ2 and α5β3γ2.
Cell pellets were suspended in Krebs-tris buffer (4.8 mM KCl, 1.2 mM CaCl2, 1.2 mM MgCl2, 120 mM NaCl, 15 mM Tris; pH 7.5; binding assay buffer), homogenized by polytron for ca. 20 sec on ice and centrifuged for 60 min at 4° C. (50000 g; Sorvall, rotor: SM24=20000 rpm). The cell pellets were resuspended in Krebs-tris buffer and homogenized by polytron for ca. 15 sec on ice. Protein was measured (Bradford method, Bio-Rad) and aliquots of 1 mL were prepared and stored at −80° C.
Radioligand binding assays were carried out in a volume of […] (96-well plates) which contained […] of cell membranes, [3H]flumazenil at a concentration of 1 nM for α1, α2, α3 subunits and 0.5 nM for α5 subunits and the test compound in the range of […]. Nonspecific binding was defined by 10^−5 M diazepam and typically represented less than 5% of the total binding. Assays were incubated to equilibrium for 1 hour at 4° C. and harvested onto GF/C uni-filters (Packard) by filtration using a Packard harvester and washing with ice-cold wash buffer 50 mM Tris; pH 7.5). After drying, filter-retained radioactivity was detected by liquid scintillation counting. Ki values were calculated using Excel-Fit (Microsoft) and are the means of two determinations.

SMILES	Ki [nM]
C#CCNC(=O)c1ccc2nc(-c3c(-c4ccccc4)noc3C)cn2c1 [Example 32, 2-(5-Methyl-3-phenyl-isoxazol-4-yl)-imidazo[1,2-a]pyridine-6-carboxylic acid prop-2-ynylamide]	44.5
Cc1onc(-c2ccccc2)c1-c1cn2cc(C(=O)NC3CCC3)ccc2n1 [Example 34, 2-(5-Methyl-3-phenyl-isoxazol-4-yl)-imidazo[1,2-a]pyridine-6-carboxylic acid cyclobutylamide]	19.8
Cc1onc(-c2ccccc2)c1-c1cn2cc(C(=O)NC3CCCC3)ccc2n1 [Example 35, 2-(5-Methyl-3-phenyl-isoxazol-4-yl)-imidazo[1,2-a]pyridine-6-carboxylic acid cyclopentylamide]	15.8
Cc1onc(-c2ccccc2)c1-c1cn2cc(C(=O)NCCO)ccc2n1 [Example 36, 2-(5-Methyl-3-phenyl-isoxazol-4-yl)-imidazo[1,2-a]pyridine-6-carboxylic acid (2-hydroxy-ethyl)-amide]	59.8
Cc1onc(-c2ccccc2)c1-c1cn2cc(C(=O)NCc3cccnc3)ccc2n1 [Example 41, 2-(5-Methyl-3-phenyl-isoxazol-4-yl)-imidazo[1,2-a]pyridine-6-carboxylic acid (pyridin-3-ylmethyl)-amide]	41.2
Cc1onc(-c2ccccc2)c1-c1cn2cc(C(=O)NCc3ccco3)ccc2n1 [Example 43, 2-(5-Methyl-3-phenyl-isoxazol-4-yl)-imidazo[1,2-a]pyridine-6-carboxylic acid (furan-2-ylmethyl)-amide]	36.9
Cc1onc(-c2ccccc2)c1-c1cn2ccc(N)cc2n1 [Example 46, 2-(5-Methyl-3-phenyl-isoxazol-4-yl)-imidazo[1,2-a]pyridin-7-ylamine]	90.3
Cc1onc(-c2ccccc2)c1-c1cn2ccc(NC(=O)Cc3cccnc3)cc2n1 [Example 47, N-[2-(5-Methyl-3-phenyl-isoxazol-4-yl)-imidazo[1,2-a]pyridin-7-yl]-2-pyridin-3-yl-acetamide]	50.7
Cc1onc(-c2ccccc2)c1-c1cn2ccc(NC(=O)C3CC3)cc2n1 [Example 48, Cyclopropanecarboxylic acid [2-(5-methyl-3-phenyl-isoxazol-4-yl)-imidazo[1,2-a]pyridin-7-yl]-amide]	79.4
Cc1onc(-c2ccccc2)c1-c1cn2ccc(NC(=O)C3CCC3)cc2n1 [Example 49, Cyclobutanecarboxylic acid [2-(5-methyl-3-phenyl-isoxazol-4-yl)-imidazo[1,2-a]pyridin-7-yl]-amide]	80.5
Cc1onc(-c2ccccc2)c1-c1cn2ccc(NC(=O)C3CCCC3)cc2n1 [Example 50, Cyclopentanecarboxylic acid [2-(5-methyl-3-phenyl-isoxazol-4-yl)-imidazo[1,2-a]pyridin-7-yl]-amide]	85.9
Cc1onc(-c2ccccc2)c1-c1cn2ccc(NC(=O)c3cccnc3)cc2n1 [Example 51, N-[2-(5-Methyl-3-phenyl-isoxazol-4-yl)-imidazo[1,2-a]pyridin-7-yl]-nicotinamide]	76.2
Cc1onc(-c2ccccc2)c1-c1cn2cc(I)ccc2n1 [Example 52, 6-Iodo-2-(5-methyl-3-phenyl-isoxazol-4-yl)-imidazo[1,2-a]pyridine]	143
C#Cc1ccc2nc(-c3c(-c4ccccc4)noc3C)cn2c1 [Example 53, 6-Ethynyl-2-(5-methyl-3-phenyl-isoxazol-4-yl)-imidazo[1,2-a]pyridine]	164
Cc1onc(-c2ccccc2)c1-c1cn2cc(N)ccc2n1 [Example 54, 2-(5-Methyl-3-phenyl-isoxazol-4-yl)-imidazo[1,2-a]pyridin-6-ylamine]	88.1
Cc1onc(-c2ccccc2)c1-c1cn2cc(NC(=O)CC3CC3)ccc2n1 [Example 55, 2-Cyclopropyl-N-[2-(5-methyl-3-phenyl-isoxazol-4-yl)-imidazo[1,2-a]pyridin-6-yl]-acetamide]	38.4
Cc1onc(-c2ccccc2)c1-c1cn2cc(NC(=O)Cc3cccnc3)ccc2n1 [Example 56, N-[2-(5-Methyl-3-phenyl-isoxazol-4-yl)-imidazo[1,2-a]pyridin-6-yl]-2-pyridin-3-yl-acetamide]	54.3
Cc1onc(-c2ccccc2)c1-c1cn2cc(NC(=O)c3cccnc3)ccc2n1 [Example 61, N-[2-(5-Methyl-3-phenyl-isoxazol-4-yl)-imidazo[1,2-a]pyridin-6-yl]-nicotinamide]	9.4
Cc1onc(-c2ccccc2)c1-c1cn2cc(N3CCC3=O)ccc2n1 [Example 62, 1-[2-(5-Methyl-3-phenyl-isoxazol-4-yl)-imidazo[1,2-a]pyridin-6-yl]-azetidin-2-one]	27
Cc1onc(-c2ccccc2)c1-c1cn2cc(N3CCCC3=O)ccc2n1 [Example 63, 1-[2-(5-Methyl-3-phenyl-isoxazol-4-yl)-imidazo[1,2-a]pyridin-6-yl]-pyrrolidin-2-one]	48.7
Cc1onc(-c2ccccc2)c1-c1cn2cc(-n3ccnc3)ccc2n1 [Example 66, 6-Imidazol-1-yl-2-(5-methyl-3-phenyl-isoxazol-4-yl)-imidazo[1,2-a]pyridine]	57.4
Cc1onc(-c2ccccc2)c1-c1cn2c(-n3ccnc3)cccc2n1 [Example 67, 5-Imidazol-1-yl-2-(5-methyl-3-phenyl-isoxazol-4-yl)-imidazo[1,2-a]pyridine]	13.4
c1ccc(-c2noc(C3CC3)c2-c2cn3ccccc3n2)cc1 [Example 68, 2-(5-Cyclopropyl-3-phenyl-isoxazol-4-yl)-imidazo[1,2-a]pyridine]	5.5
Brc1ccc2nc(-c3c(-c4ccccc4)noc3C3CC3)cn2c1 [Example 69, 6-Bromo-2-(5-cyclopropyl-3-phenyl-isoxazol-4-yl)-imidazo[1,2-a]pyridine]	7.13

Next, values leading:

Ki [nM]	SMILES
23.6	Cc1onc(-c2ccccc2)c1-c1cn2cc(C(=O)NC3CC3)ccc2n1 [Example 33, 2-(5-Methyl-3-phenyl-isoxazol-4-yl)-imidazo[1,2-a]pyridine-6-carboxylic acid cyclopropylamide]
6.8	Cc1onc(-c2ccccc2)c1-c1cn2cc(C(=O)NC3CCOCC3)ccc2n1 [Example 37, 2-(5-Methyl-3-phenyl-isoxazol-4-yl)-imidazo[1,2-a]pyridine-6-carboxylic acid (tetrahydro-pyran-4-yl)-amide]
174	Cc1onc(-c2ccccc2)c1-c1cn2cc(C(=O)NCCN3CCOCC3)ccc2n1 [Example 38, 2-(5-Methyl-3-phenyl-isoxazol-4-yl)-imidazo[1,2-a]pyridine-6-carboxylic acid (2-morpholin-4-yl-ethyl)-amide]
85.5	Cc1onc(-c2ccccc2)c1-c1cn2cc(C(=O)NCc3ccncc3)ccc2n1 [Example 42, 2-(5-Methyl-3-phenyl-isoxazol-4-yl)-imidazo[1,2-a]pyridine-6-carboxylic acid (pyridin-4-ylmethyl)-amide]
189	C#Cc1ccn2cc(-c3c(-c4ccccc4)noc3C)nc2c1 [Example 45, 7-Ethynyl-2-(5-methyl-3-phenyl-isoxazol-4-yl)-imidazo[1,2-a]pyridine]
20.8	Cc1onc(-c2ccccc2)c1-c1cn2cc(NC(=O)C3CC3)ccc2n1 [Example 57, Cyclopropanecarboxylic acid [2-(5-methyl-3-phenyl-isoxazol-4-yl)-imidazo[1,2-a]pyridin-6-yl]-amide]
28.2	Cc1onc(-c2ccccc2)c1-c1cn2cc(NC(=O)C3CCC3)ccc2n1 [Example 58, Cyclobutanecarboxylic acid [2-(5-methyl-3-phenyl-isoxazol-4-yl)-imidazo[1,2-a]pyridin-6-yl]-amide]
54.7	Cc1onc(-c2ccccc2)c1-c1cn2cc(NC(=O)C3CCCC3)ccc2n1 [Example 59, Cyclopentanecarboxylic acid [2-(5-methyl-3-phenyl-isoxazol-4-yl)-imidazo[1,2-a]pyridin-6-yl]-amide]
30.7	Cc1onc(-c2ccccc2)c1-c1cn2cc(NC(=O)c3ccccc3)ccc2n1 [Example 60, N-[2-(5-Methyl-3-phenyl-isoxazol-4-yl)-imidazo[1,2-a]pyridin-6-yl]-benzamide]
73.2	Cc1onc(-c2ccccc2)c1-c1cn2cc(-n3cccc3)ccc2n1 [Example 64, 2-(5-Methyl-3-phenyl-isoxazol-4-yl)-6-pyrrol-1-yl-imidazo[1,2-a]pyridine]
41.1	Cc1onc(-c2ccccc2)c1-c1cn2cc(-n3cccn3)ccc2n1 [Example 65, 2-(5-Methyl-3-phenyl-isoxazol-4-yl)-6-pyrazol-1-yl-imidazo[1,2-a]pyridine]
